Measured values from patent US4667032A, “Phenothiazone derivatives and analogs” (Merck Frosst Canada, Inc., priority 1985, dated 1987).

What was measured:
[1] = tested on: tracheal chain of sensitized guinea pigs; experiment: Antigen Challenge 'in vitro' Assay (egg albumin contraction of sensitized guinea pig tracheal chain); conditions: 10 μg (μg/ml)
Method: Male guinea pigs weighing 300-350 g were sensitized by injecting (I.P.) 0.5 ml of a suspension containing 0.4 mg of egg albumin (Ovalbumin, Grade V, Sigma Chemical Co.) and 4.0 g aluminum hydroxide in 19.6 ml of saline. Two weeks were permitted for sensitization to occur.
Three sensitized guinea pigs were stunned and exsanguinated. The tracheas were removed, freed of adhering tissue and divided longitudinally by cutting through the cartilaginous tissue directly opposite the muscle insertion. Each opened trachea was then transected between every second cartilage. Four of the cut sections were tied together, end to end, in a series with No. 7 silk thread ensuring that the tracheal muscles were all in the same vertical plane. Thus, each chain consisted of tissue from three different animals.
The chain so formed was then suspended under 1 g of tension (by silk ties at each end) in a 20 ml organ bath containing 10 ml of modified* Krebs-Henseleit buffer solution gassed with 95% O2 and 5% CO2 at 37° C. Mepyramine (0.55 μg/ml) and indomethacin (2.67 μg/ml) were added to the buffer to avoid the contribution of histamine receptors and cyclooxygenase products to the contraction. To record responses one end of the tracheal chain was attached to a Gould-Statham UC-2 force displacement transducer which was connected to a Beckman Type R-dynograph.The preparations were allowed to equilibrate for one hour during which time the tissues were automatically washed (10 ml volume displacement) every 6 minutes.
After the equilibration period the tissues were primed with methacholine (3 μg/ml; 1.5×10^-5 M), washed and allowed to recover to baseline. The tissues were treated again with a second dose of methacholine, washed, allowed to return to baseline and washed for an additional hour.
Two chains were used as a control. These were incubated in a concentration of egg albumin sufficient to induce an average contraction of 50-80% of the methacholine response.
Each compound to be tested was added to two other baths (at a final concentration in each bath of 10 μg/ml) 15 minutes prior to challenging the fresh chains with egg albumin.
The response of the challenged tissue was expressed as a percentage of the methacholine maximum. The % inhibition for each compound was then calculated. Compounds which at 10 μg/ml (final conc.) inhibited the egg albumin response by 50% or more were retested at a lower concentration.

asthmatic rats = experiment: Asthmatic Rat Assay (duration of dyspnoea after egg albumin aerosol); assay type: in vivo; conditions: for ED50: Rattus norvegicus; for % inhibition (Ed50 column): p.o.
Excerpt: Rats were obtained from an inbred line of asthmatic rats. Both female and male rats from 200 to 300 g were used.
Egg albumin (EA), grade V, crystallized and lyophilized, was obtained from Sigma Chemical Co., St. Louis. Bordetella pertussis vaccine, containing 30×10^9 killed bacteria per ml was obtained from the Institut Armand-Frappier, Laval des Rapides, Quebec. Aluminum hydroxide was obtained from the Regis Chemical Company, Chicago.
The challenge and subsequent respiratory recordings were carried out in a clear plastic box with internal dimensions 10×6×4 inches. The top of the box was removable; in use, it was held firmly in place by four clamps and an airtight seal was maintained by a soft rubber gasket. […] A Fleisch No. 0000 pneumotachograph was inserted into one end of the box and coupled to a Grass volumetric pressure transducer (PT5-A) which was then connected to a Beckman Type T Dynograph through appropriate couplers. While aerosolizing the antigen, the outlets were open and the pneumotachograph was isolated from the chamber. The outlets were closed and the pneumotachograph and the chamber were connected during the recording or the respiratory patterns. For challenge, 2 ml of a 3% solution of antigen in saline was placed into each nebulizer and the aerosol was generated with air from a small Potter diaphragm pump operating at 10 psi and a flow of 8 liters/minute.
Rats were sensitized by injecting (s.c.) 1 ml of a suspension containing 1 mg EA and 200 mg aluminum hydroxide in saline. Simultaneously, they received an injection (i.p.) of 0.5 ml of B. pertussis vaccine. They were used between days 14 and 18 postsensitization. In order to eliminate the serotonin component of the response, rats were pretreated intravenously 5 minutes prior to aerosol challenge with […] methylserzide. Rats were then exposed to an aerosol of 3% EA in saline for exactly 1 minute, then their respiratory profiles were recorded for a further 25-30 minutes. The duration of continuous dyspnoea was measured from the respiratory recordings.
Compounds were generally administered either intraperitoneally 1 hour prior to challenge or orally 11/2 hours prior to challenge. They were either dissolved in dimethylsulfoxide or suspended in 0.1% methocel and 0.5% Tween 80. The volume injected has 2 ml/kg (intraperitoneally) or 10 ml/kg (orally). Prior to oral treatment rats were starved overnight. Their activity was determined in terms of their ability to decrease the duration of symptoms of dyspnoea in comparison with a group of vehicle-treated controls. Usually, a compound was evaluated at a series of doses and an ED50 was determined. This was defined as the dose (mg/kg) which would inhibit the duration of symptoms by 50%.

[2] = tested on: rat paw, PAF-induced hyperalgesia; experiment: PAF-Induced Hyperalgesia Assay; assay type: in vivo, Female Sprague-Dawley rats; conditions: for Vocalization Threshold: 3 hr after PAF, Mean ± S.E.M., n = 10
Method: Female Sprague-Dawley rats, 35-40 g were fasted overnight. Platelet activating factor, PAF, (L-lecithin B-acetyl O-alkyl) 1 μg/0.1 ml was given by subplantar injection in the rat paw. The compounds to be evaluated were homogenized in Aqueous Vehicle (0.9% benzyl alcohol, 0.5% Tween 80 and 0.4% methylcellulose) and administered orally in a volume of 0.1 ml, 30 minutes prior to PAF.
Animals were tested 1, 2, 3 and 4 hours after PAF administration. The vocalization threshold, defined as the pressure (mmHg) needed to evoke a squeak response, was recorded for both the injected and contralateral paw. No animal was subjected to pressure greater than 60 mmHg. Hyperalgesia is defined as a decrease in vocalization threshold as compared to a normal paw. Percent inhibition of hyperalgesia was calculated as the proportion of animals with vocalization thresholds greater than 200% of controls.
^a mmHg Mean ± S.E.M., n = 10 Reading taken 3 hr after injection o
PAF, (3.5 hr. after administration of compound).

[3] = tested on: rat paw, Brewer's yeast hyperalgesia; experiment: Brewer's Yeast Hyperalgesia Assay; assay type: in vivo, Female Sprague-Dawley rats; conditions: for Vocalization Threshold: mean, n = 10
Method: The standard method* for yeast hyperalgesia was used. Female Sprague-Dawleyrats, […] were fasted overnight. A 5% solution (volume 0.1 ml) of Brewer's yeast was injected into the rat paw. The compound was homogenized in aqueous vehicle and given orally 2 hours after yeast. Vocalization thresholds were recorded 1 hours after drug (3 hours after yeast).
^a mmHg: mean ± S.E.M. n = 10

[4] = tested on: Mouse peritoneal macrophages; experiment: Mouse Macrophage Assay (leukotriene C4 / PGE2 / 6-keto PGF1α formation, zymosan stimulated); assay type: cell-based; conditions: at 0.05 mg/ml, read-out: Macrophage, % at stated concentration
Method: Mouse peritoneal macrophages were treated sequentially with arachidonic acid (labelled with tritium); the compound being evaluated as an inhibitor, and a stimulator (zymosan). Metabolites derived from arachidonic acid PGE2 6-keto PH-F1α and leukotriene C4) were separated from the incubation medium by extraction and chromatography, and then quantitated by determining the amount of radioactivity (cpm) associated with each of them. […] (This protocol is identical to that described in the reference except that the radioactivity herein associated with the LTC4 was determined by counting an aliquot of the final aqueous solution directly rather than chromatographing it first).
Reference: Humes, J. L. et al., J. Biol. Chem. 257, 1591-4, (1982).

[5] = tested on: tracheal chain of sensitized guinea pigs; experiment: Antigen Challenge 'in vitro' Assay (egg albumin contraction of sensitized guinea pig tracheal chain); conditions: Table 4

4-Chloro-2,7-dimethyl-3H-phenothiazin-3-one [Example 5]
In Vitro Antigen Challenge Test % Inhibition [1]: 45%

O=c1ccc2nc3ccccc3sc-2c1 [C]
ED50 (asthmatic rats; ip): ~5 mg/kg

O=c1ccc2nc3ccccc3sc-2c1Cl [B]
ED50 (asthmatic rats; po): 1.5 mg/kg

4-Chloro-2,7-dimethoxy-3H-phenothiazin-3-one [Example 3]
In Vitro Antigen Challenge Test % Inhibition [1]: 25%

O=c1ccc2nc3ccccc3sc-2c1Cl [Example 2, 4-Chloro-3H-phenothiazin-3-one]
% Inhibition ([2]; Experiment 1, 0.01 mg/kg p.o.): 40%
Vocalization Threshold ([2]; Experiment 1, 0.01 mg/kg p.o.): 28.2 ± 5.2 mmHg
% Inhibition ([2]; Experiment 1, 0.03 mg/kg p.o.): 80%
Vocalization Threshold ([2]; Experiment 1, 0.03 mg/kg p.o.): 40.2 ± 5.0 mmHg
% Inhibition ([2]; Experiment 1, 0.1 mg/kg p.o.): 80%
Vocalization Threshold ([2]; Experiment 1, 0.1 mg/kg p.o.): 37.4 ± 3.9 mmHg
% Inhibition ([2]; Experiment 1, 0.3 mg/kg p.o.): 90%
Vocalization Threshold ([2]; Experiment 1, 0.3 mg/kg p.o.): 45.4 ± 3.7 mmHg
% Inhibition ([2]; Experiment 1, 3.0 mg/kg p.o.): 100%
Vocalization Threshold ([2]; Experiment 1, 3.0 mg/kg p.o.): 46.0 ± 3.0 mmHg
% Inhibition ([2]; Experiment 2, 0.001 mg/kg p.o.): 0%
Vocalization Threshold ([2]; Experiment 2, 0.001 mg/kg p.o.): 10.0 ± 1.6 mmHg
% Inhibition ([2]; Experiment 2, 0.003 mg/kg p.o.): 30%
Vocalization Threshold ([2]; Experiment 2, 0.003 mg/kg p.o.): 16.4 ± 2.8 mmHg
% Inhibition ([2]; Experiment 2, 0.01 mg/kg p.o.): 30%
Vocalization Threshold ([2]; Experiment 2, 0.01 mg/kg p.o.): 18.0 ± 2.9 mmHg
% Inhibition ([2]; Experiment 2, 0.1 mg/kg p.o.): 60%
Vocalization Threshold ([2]; Experiment 2, 0.1 mg/kg p.o.): 29.6 ± 4.4 mmHg
% Inhibition ([3]; 0.3 mg/kg p.o.): 30%
Vocalization Threshold ([3]; 0.3 mg/kg p.o.): 17.6 mmHg
% Inhibition ([3]; 1.0 mg/kg p.o.): 30%
Vocalization Threshold ([3]; 1.0 mg/kg p.o.): 19.4 mmHg
% Inhibition ([3]; 3.0 mg/kg p.o.): 60%
Vocalization Threshold ([3]; 3.0 mg/kg p.o.): 30.0 mmHg
% Inhibition ([3]; 10.0 mg/kg p.o.): 70%
Vocalization Threshold ([3]; 10.0 mg/kg p.o.): 28.6 mmHg
% Inhibition ([3]; 30.0 mg/kg p.o.): 80%
Vocalization Threshold ([3]; 30.0 mg/kg p.o.): 32.6 mmHg

O=C1C=CC2=Nc3ccccc3S(=O)(=O)C2=C1O [E]
% inhibition (Ed50 column) (asthmatic rats; at 1.5 mg/kg): 37%

COc1ccc2nc3cc(OC)c(=O)c(Br)c-3sc2c1 [D]
ED50 (asthmatic rats; po): 1 mg/kg

O=c1cc2sc3ccccc3nc-2c2ccccc12 [F]
% inhibition (Ed50 column) (asthmatic rats; at 5 mg/kg): 36%

O=c1ccc2nc3ccccc3sc-2c1Cl [drawing 40]
ED50 (asthmatic rats; ip): 0.5 mg/kg

Cc1cc2nc3ccc(N(C)C)cc3sc-2cc1=N
inhibition at 50 µg/mL [4]: 10%
In Vitro Antigen Challenge Test % Inhibition ([5]; 10 mg (mg/ml)): 24%

4-Chloro-7-methyl-3H-phenothiazin-3-one [Example 7]
In Vitro Antigen Challenge Test % Inhibition ([5]; 10 mg (mg/ml)): 37%

7-Fluoro-2-methoxy-3H-phenothiazin-3-one [Example 13]
In Vitro Antigen Challenge Test % Inhibition ([5]; 3 mg (mg/ml)): 54%

7-Fluoro-3H-phenothiazin-3-oone [Example 11]
In Vitro Antigen Challenge Test % Inhibition ([5]; 3 mg (mg/ml)): 23%
